Source: patent US9814776B2, “Pharmaceutical preparation comprising aminopyrazole derivative” (Chugai Seiyaku Kabushiki Kaisha, priority 2013, dated 2017)
In brackets after ≈: the same amount, converted by molar mass.

Assay: Solubility of Compound 1 malate after 24 hours in Dissolution Test Solution 1 of the Japanese Pharmacopoeia with 5% surfactant
Format: physicochemical
Settings: thermodynamic from solid
Description: The surfactants shown in Table 3 and Dissolution Test Solution 1 of the Japanese Pharmacopoeia were used, and the concentration of each surfactant was adjusted to 5%. Compound 1 malate was sufficiently added thereto, the mixture was stirred, and the solubility after 24 hours was measured.

solubility at 24 h (pH 1.2, aqueous with cosolvent or surfactant or cyclodextrin, 5% Polyoxyethylene (10) octylphenyl ether): 145 µg/mL (≈ 406 µM) | solubility at 24 h (pH 1.2, aqueous with cosolvent or surfactant or cyclodextrin, 5% Polysorbate 80): 138 µg/mL (≈ 388 µM) | solubility at 24 h (pH 1.2, aqueous with cosolvent or surfactant or cyclodextrin, 5% Sodium lauryl sulfate): 136 µg/mL (≈ 383 µM) | solubility at 24 h (pH 1.2, simulated gastric fluid, no surfactant): 18.5 µg/mL (≈ 51.9 µM)
Compound: Cc1nc2cc(-n3ncc(C(=O)c4cc5ccccc5[nH]4)c3N)ccc2[nH]1 [Compound 1, [5-amino-1-(2-methyl-3H-benzimidazol-5-yl)-1H-pyrazol-4-yl]-(1H-indol-2-yl)-methanone]
